Results: article PMC6804233, “Design and Synthesis of Novel 1,3-Thiazole and 2-Hydrazinyl-1,3-Thiazole Derivatives as Anti-Candida Agents: In Vitro Antifungal Screening, Molecular Docking Study, and Spectroscopic Investigation of their Binding Interaction with Bovine Serum Albumin” (Molecules, 2019)

Molecular target: T1, bovine serum albumin (BSA) (Bos taurus, UniProt P02769)
T1 construct: gene ALB; BSA fraction V
Assay: Intrinsic tryptophan fluorescence quenching titration (Stern–Volmer; double-log plot for Kb), pH […], room temperature
Type: binding
Conditions: read-out: Kb × 10^5 (M^-1) (converted)

T1 sequence (P02769 25-607): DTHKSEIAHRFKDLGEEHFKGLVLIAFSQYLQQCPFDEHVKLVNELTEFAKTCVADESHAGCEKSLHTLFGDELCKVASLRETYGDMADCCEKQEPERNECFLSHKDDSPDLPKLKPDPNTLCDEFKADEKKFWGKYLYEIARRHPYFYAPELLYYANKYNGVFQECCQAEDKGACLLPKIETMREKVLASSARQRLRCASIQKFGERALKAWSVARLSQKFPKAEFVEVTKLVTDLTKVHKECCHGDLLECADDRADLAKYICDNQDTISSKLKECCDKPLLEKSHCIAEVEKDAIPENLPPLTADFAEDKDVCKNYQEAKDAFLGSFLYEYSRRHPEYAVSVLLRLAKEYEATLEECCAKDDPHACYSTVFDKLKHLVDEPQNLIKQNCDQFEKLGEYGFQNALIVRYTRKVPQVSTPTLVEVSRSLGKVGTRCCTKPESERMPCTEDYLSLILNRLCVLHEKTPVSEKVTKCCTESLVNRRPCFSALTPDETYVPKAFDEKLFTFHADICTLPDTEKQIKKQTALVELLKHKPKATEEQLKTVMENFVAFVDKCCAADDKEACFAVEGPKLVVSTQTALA

Cc1ccc(-c2csc(NN=C(COc3cc(C)ccc3C(C)C)c3ccccc3)n2)cc1 [7e, 2-(2-(2-(2-isopropyl-5-methylphenoxy)-1-phenylethylidene)hydrazineyl)-4-(p-tolyl)thiazole]
Kd: 4.42 µM
